# “And” between values parts separate entries of the source, which are not always exact repeats. Equal values may be shown once. Read-outs that look alike come from different tables or passages of the source.
# How the values were obtained:
# NAMPT [1] = molecular target: T1, NAMPT (Homo sapiens, UniProt P43490); experiment: NAMPT activity assay by fluorescence of NMN derivative (HTS system), IC50 determination; format: biochemical; set-up: His-tag; made in house; host or cells: E. coli BL21-CodonPlus (DE3)-RIL; settings: recombinant human NAMPT, read-out: NAMPT IC50
# T1 sequence (P43490 whole entry): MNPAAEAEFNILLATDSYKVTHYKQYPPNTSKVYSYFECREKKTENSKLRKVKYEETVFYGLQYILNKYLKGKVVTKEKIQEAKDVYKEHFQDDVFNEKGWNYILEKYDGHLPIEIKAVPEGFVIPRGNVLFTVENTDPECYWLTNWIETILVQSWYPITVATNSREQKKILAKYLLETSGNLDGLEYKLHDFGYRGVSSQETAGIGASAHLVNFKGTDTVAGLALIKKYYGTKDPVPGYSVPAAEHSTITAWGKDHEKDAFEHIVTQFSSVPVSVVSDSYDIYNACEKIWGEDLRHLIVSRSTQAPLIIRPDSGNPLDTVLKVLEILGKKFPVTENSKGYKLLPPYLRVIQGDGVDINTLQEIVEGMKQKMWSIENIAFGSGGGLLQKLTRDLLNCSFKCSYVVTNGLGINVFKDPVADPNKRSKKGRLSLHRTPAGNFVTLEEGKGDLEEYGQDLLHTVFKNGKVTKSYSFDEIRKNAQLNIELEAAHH
# HepG2 cells [2] = experiment: Sulforhodamine B protein staining (SRB) assay in HepG2; format: cell-based, human; settings: Homo sapiens
# Experimental: (§1) Sulfor hod am ine B p rotei n st ai ning (SRB) assay
# (§2) Cell pr oliferat ion was eva lua ted by sul for hod amine B pr ot ein st aini ng (SRB) assa y10-12.
# (§3) Briefly, cel ls were se ede d int o 96-well pl ates, cul tur ed overni ght , and trea ted with correspond ing com poun ds for 72 h. Cells were the n fixe d with 10% trichl or oa cetic aci d and st ained with sul for hoda mine B (Sigm a). Sul for hoda mine B in the cells was di sso lved in 10 mmol/L Tris-HCl and was measured at 515 nm usi ng a multiw ell spect ropho tometer (VERSA max, Mol ecul ar Devi ces, Sunnyva le, CA). The inhi bi tion rat e on cell pr olif eratio n was cal culated for each well as (A515contr ol cells-A 515tr eated cells)/A515contr ol cells×100 % (A515:
# (§4) OD va lue at 515 nm ). The averag e IC50 va lue s were de termine d by Logit method from at leas t t hr eei nde pe nde nt test s.
# A549 cells = experiment: SRB assay in A549; format: cell-based, human; settings: Homo sapiens; A549, SRB, 10-fold concentration gradient; read-out: anti-proliferation IC50, initial screen
# Experimental: as §1, §2, §3, §4
# HCT116 cells = experiment: SRB assay in HCT116; format: cell-based; settings: Homo sapiens, HCT-116; HCT116, SRB, 10-fold concentration gradient; read-out: anti-proliferation IC50, initial screen
# Experimental: as §1, §2, §3, §4
# HepG2 cells [3] = experiment: Cell counting kit-8 (CCK-8) cell viability assay in HepG2; format: cell-based, human; settings: HepG2, 48 hours treatment, read-out: CCK-8 assay in HepG2: IC50
# Experimental: (§5) Cellc ount ing k it-8 (CCK-8) assa y
# Cell vi ability was de termine d by ou r previ ous method9 usi ng the Cell Counting Kit-8 (CCK -8, Dojindo, Ja pa n). In hu man he pa tocellu lar carcinom a cell line HepG 2, cells were seede d in 96-well plate and starve d for ove r 12 h with se rum-free DMEM at 60~ 70% conf lue nc y, the n trea ted wit h com pounds or ve hicle for 24 h to 72 h accor ding to expe riment requi rement s. […]
# (§6) 10 μl CCK-8 sol ution was adde d to the cul ture medium and inc ub ated at 37 °C for 1 h. Th e absor banc e at 450 nm (A450) was de tected by a pl ate reade r. Each e xperi ment w as carr ied out i n t riplic ate i n thr ee r eplic ate w ells.
# Huh7-C cells = experiment: CCK-8 assay in stem-like human hepatoma cell line Huh7-C; format: cell-based; settings: Huh7-C, treated 60 h, read-out: CCK-8 assay in Huh7-C: IC50
# Experimental: as §5
# Cell vi ability was de termine d by ou r previ ous method9 usi ng the Cell Counting Kit-8 (CCK -8, […]
# as §6
# NAMPT [4] = molecular target: T1, NAMPT; experiment: Cellular thermal shift assay (CETSA / […]) in HepG2 cell lysate; format: binding; set-up: endogenous in cells; host or cells: HepG2
# NAMPT [5] = molecular target: T1, NAMPT; experiment: Cellular thermal shift assay (CETSA / […]) in intact HepG2 cells; format: cell-based; set-up: endogenous in cells; host or cells: HepG2; settings: 62 °C
# [6] = HepG2, 72 h, HepG2, second test, 2-fold concentration gradient, 72 hours, read-out: SRB assay in HepG2: IC50
# [7] = HepG2, HepG2, SRB, 10-fold concentration gradient, read-out: anti-proliferation IC50, initial screen
structure (smiles),measurement,setting,value
N#CN=C(NCc1cccnc1)Nc1ccc(S(=O)(=O)N2CCCC2)cc1 [MS21],IC50,NAMPT [1]; mean ± s.e.,0.577 ± 0.0387 µM
"O=S(=O)(c1ccc(NC(=S)NCc2cccnc2)cc1)N1CCN(C2CCCCC2)CC1 [MS8, 1-(4-((4-cyclohexylpiperazin-1-yl)sulfonyl)phenyl)-3-(pyridin-3-ylmethyl)thiourea]",IC50,NAMPT [1]; mean ± s.e.,0.0142 ± 0.0024 µM
O=C(Nc1ccc(S(=O)(=O)N2CCCCC2)cc1)OCc1cccnc1 [MS17],IC50,NAMPT [1]; mean ± s.e.,0.0428 ± 0.004 µM
O=S(=O)(c1ccc(NC(=S)NCc2cccnc2)cc1)N1CCN(Cc2nc3ccccc3[nH]2)CC1 [MS39],IC50,NAMPT [1]; mean ± s.e.,0.014 ± 0.0003 µM
O=S(=O)(c1ccc(NC(=S)NCc2cccnc2)cc1)N1CCN(Cc2ccc(Cl)cc2)CC1 [MS31],IC50,HepG2 cells [2]; [6],5.81 ± 0.71 µM
same,IC50,HepG2 cells [2]; [7],< 5 µM
same,IC50,A549 cells,< 5 µM
same,IC50,HCT116 cells,< 5 µM
same,IC50,NAMPT [1]; mean ± s.e.,0.0137 ± 0.0016 µM
"O=C(/C=C/c1cccnc1)NCCCCC1CCN(C(=O)c2ccccc2)CC1 [FK866, reference compound]",IC50,HepG2 cells [2]; [6],0.05 µM
O=[N+]([O-])c1ccc(CN2CCN(S(=O)(=O)c3ccc(NC(=S)NCc4cccnc4)cc3)CC2)cc1 [MS37],IC50,HepG2 cells [2]; [6],4.65 ± 1.03 µM
same,IC50,HepG2 cells [2]; [7],< 5 µM
same,IC50,A549 cells,< 5 µM
same,IC50,HCT116 cells,< 5 µM
same,IC50,NAMPT [1]; mean ± s.e.,0.0197 ± 0.0021 µM
COc1ccc(CCNC(=O)c2cc3ccccc3s2)cc1OC [compound 2161],IC50,NAMPT [1]; mean ± s.e.,0.149 ± 0.021 µM
O=S(=O)(c1ccc(NC(=S)NCc2cccnc2)cc1)N1CCN(Cc2ccc(OC(F)(F)F)cc2)CC1 [MS35],IC50,HepG2 cells [2]; [6],4.83 ± 0.13 µM
same,IC50,HepG2 cells [2]; [7],< 5 µM
same,IC50,A549 cells,< 5 µM
same,IC50,HCT116 cells,< 5 µM
same,IC50,NAMPT [1]; mean ± s.e.,0.0369 ± 0.0046 µM
Nc1ccc(CN2CCN(S(=O)(=O)c3ccc(NC(=S)NCc4cccnc4)cc3)CC2)cc1 [MS38],IC50,NAMPT [1]; mean ± s.e.,0.0199 ± 0.0028 µM
O=S(=O)(c1ccc(NC(=S)NCc2cccnc2)cc1)N1CCN(Cc2c(F)cccc2F)CC1 [MS23],IC50,HepG2 cells [2]; [6],> 10 µM
same,IC50,HepG2 cells [2]; [7],< 5 µM
same,IC50,A549 cells,< 5 µM
same,IC50,HCT116 cells,< 5 µM
same,IC50,NAMPT [1]; mean ± s.e.,0.0099 ± 0.0012 µM
N=C(NCc1cccnc1)Nc1ccc(C(=O)N2CCCCC2)cc1 [MS19],IC50,NAMPT [1]; mean ± s.e.,14.5 ± 0.203 µM
same,IC50,NAMPT [1]; values given in μM,14.5 ± 0.2 µM
Cc1ccc(N2CCN(S(=O)(=O)c3ccc(NC(=S)NCc4cccnc4)cc3)CC2)cc1 [MS46],IC50,NAMPT [1]; mean ± s.e.,0.0154 ± 0.0016 µM
"O=S(=O)(c1ccc(NC(=S)NCc2cccnc2)cc1)N1CCN(c2ccccn2)CC1 [MS6, 1-(4-((4-(pyridin-2-yl)piperazin-1-yl)sulfonyl)phenyl)-3-(pyridin-3-ylmethyl)thiourea]",IC50,NAMPT [1]; mean ± s.e.,0.0177 ± 0.0034 µM
"O=S(=O)(c1ccc(NC(=S)NCc2cccnc2)cc1)N1CCN(Cc2ccccc2)CC1 [MS7, 1-(4-((4-benzylpiperazin-1-yl)sulfonyl)phenyl)-3-(pyridin-3-ylmethyl)thiourea]",IC50,HepG2 cells [3],1.27 µM
same,IC50,"HepG2 cells [3]; Homo sapiens, HepG2, 48 h",1.27 ± 0.158 µM
same,IC50,HepG2 cells [2]; [6],> 10 µM
same,IC50,Huh7-C cells,1.06 ± 0.248 µM
same,CETSA melting curve shift of NAMPT in cell lysate,"NAMPT [4]; HepG2 cell lysate, 100 μM",large thermal shift
same,"ITDRFCETSA for NAMPT in lysate, compared with MS1","NAMPT [4]; cell lysate, 62 °C",shifted to the left
same,ITDRFCETSA of NAMPT in cell lysate versus intact cells,NAMPT [5]; lysate value relative to intact cells,no significant difference
same,"ITDRFCETSA for NAMPT in intact cell, difference to MS1 (shifted to the right)",NAMPT [5]; intact cell,no less than 10 fold
same,IC50,NAMPT [1]; mean ± s.e.,0.00093 µM and 0.0009 µM
O=C(NCc1ccc(S(=O)(=O)NCc2cc(F)cc3c2OCOC3)s1)c1ccc(Cl)cc1 [compound 4162],IC50,NAMPT [1]; mean ± s.e.,0.777 ± 0.084 µM
O=S(=O)(c1ccc(NC(=S)NCc2cccnc2)cc1)N1CCN(Cc2ccco2)CC1 [MS42],IC50,NAMPT [1]; mean ± s.e.,0.0191 ± 0.002 µM
N=C(NCc1cccnc1)Nc1ccc(S(=O)(=O)N2CCCCC2)cc1 [MS18],IC50,NAMPT [1]; mean ± s.e.,0.765 ± 0.0748 µM
O=S(=O)(c1ccc(NC(=S)NCc2cccnc2)cc1)N1CCN(Cc2ccoc2)CC1 [MS40],IC50,NAMPT [1]; mean ± s.e.,0.0487 ± 0.0045 µM
O=S(=O)(c1ccc(NC(=S)NCc2cccnc2)cc1)N1CCN(Cc2ccccc2Cl)CC1 [MS30],IC50,NAMPT [1]; mean ± s.e.,0.0157 ± 0.0025 µM
O=S(=O)(c1ccc(NC(=S)NCc2cccnc2)cc1)N1CCN(Cc2ccc(Br)cc2)CC1 [MS32],IC50,HepG2 cells [2]; [6],4.86 ± 0.15 µM
same,IC50,HepG2 cells [2]; [7],< 5 µM
same,IC50,A549 cells,< 5 µM
same,IC50,HCT116 cells,< 5 µM
same,IC50,NAMPT [1]; mean ± s.e.,0.0242 ± 0.0016 µM
Cc1ccc2oc(=O)n(CCC(N)=NOC(=O)c3ccccc3)c2c1 [compound 7391],IC50,NAMPT [1]; mean ± s.e.,0.855 ± 0.17 µM
O=C(c1ccc(NC(=S)NCc2cccnc2)cc1)N1CCCCC1 [MS15],IC50,NAMPT [1]; mean ± s.e.,0.0422 ± 0.0031 µM
O=S(=O)(c1ccc(NC(=S)NCc2cccnc2)cc1)N1CCN(Cc2ccc(F)cc2)CC1 [MS22],IC50,NAMPT [1]; mean ± s.e.,0.012 ± 0.0015 µM
